Laboratory results: patent US5340811A, “Isoquinoline-or quinoline-sulfonamide derivative and a pharmaceutical composition comprising the same” (priority 1990, dated 1994)
Where a name gives a salt, the structure may show the parent alone.

How the values were obtained:
[1] = known from literature/patents; cited from earlier work
[2] = known from literature/patents; cited from earlier work; remark: listed apart in the source
[3] = tested on: trachea of a guinea pig; assay: Effect on trachea in vivo: inhibition of histamine-induced tracheal contraction (modified Konzett-Rossler method); settings: for suppression of histamine-induced bronchial contraction: contraction induced by intravenous administration of 1 mg/kg of histamine (as printed in text); for inhibition in vivo at 1 mg/kg: Cavia porcellus, iv, 0.05 h, compound 1 mg/kg via femoral vein, histamine 20 μg/kg i.v. after 3 minutes, urethane anesthesia, n=3, non-salt compounds used as hydrochloride
Text: According to a modified method of Konzett-Rossler method [see J. Martinez et al, Bronchial Arterial Injections, vol. […] Urethane was intraperitoneally administered to male guinea pigs weighing 350 to 600 g (Hartley strain, Kuroda Junkei Dobutsu) in an amount of 1.5 g/kg of body weight to anesthetize the animals. Then, cannulae were inserted into the trachea and femoral vein of each animal under urethane anesthesia and fixed. […] Each of the above-mentioned compounds of the present invention was administered to guinea pigs through the femoral vein in an amount of 1 mg/kg of body weight. […] As a solvent for each compound, physiological saline was used. The number of the guinea pigs tested in each group was 3.

[4] = tested on: tracheal specimens excised from guinea pigs; assay: Inhibitory effect on KCl-induced contraction of tracheal specimens excised from guinea pigs; assay type: cell-based, guinea pig; settings: Cavia porcellus; dose relaxing KCl (20 mM)-induced contraction to 50%; 37° C.; n=3; non-salt compounds used as hydrochloride; read-out: ED50 (KCl-induced contraction)
Text: According to a method in which tracheal specimens excised from guinea pigs were used (Takagi and Ozawa, "Yakubutsugaku Jikken (Experiments in Pharmacology)", pp.100-102, 1960, published by Nanzando Japan; and Fujiwara and Shibata, "Yakurigaku Kiso Jikenho (Methods of Fundamental Experiments in Pharmacology)" pp.131-134, 1982, published by Kyourin, Japan), relaxing effect of sulfonamide derivatives of the present invention on bronchial smooth muscle was examined. […] After the KCl-induced contraction became stable, each of the compounds of the present invention was dissolved in distilled water or physiological saline, and the compound solution was cumulatively added into the Magnus tube. The relaxing effect of each of the compounds of the present invention on contracted tracheal specimens was evaluated and a dose-response curve was obtained. A dose required for relaxing KCl-induced contraction to 50%, i.e., ED50 was calculated from the dose-response curve. […] The number of tracheal specimens in each group was 3.

[5] = tested on: tracheal specimens excised from guinea pigs; assay: Inhibitory effect on PGF2α-induced contraction of tracheal specimens excised from guinea pigs; assay type: cell-based, guinea pig; settings: Cavia porcellus; dose relaxing PGF2α (final 1 μm)-induced contraction to 50%; n=3; non-salt compounds used as hydrochloride; read-out: PGF2α-induced contraction ED50 (Table 18)
Experimental: Tracheal specimens excised from male guinea pigs weighing 350 to 500 g (Hartley strain, Kuroda Junkei Dobutsu) were contracted in substantially the same manner as in Application Example 1 except that PGF2α (final concentration: 1 μm) was used instead of KCl. After the contraction of the tracheal specimens became stable, each of the compounds (hydrochloride) of the present invention was dissolved in distilled water or physiological saline, and the compound solution was cumulatively added into the Magnus tube in the same manner as in Application Example 1. The relaxing effect of each of the compounds of the present invention on the contracted specimens was evaluated and a dose-response curve was obtained. The dose required for relaxing PGF2α-induced contraction to 50%, i.e., ED50 was calculated form the dose-response curve. […] For comparison, the same procedure as described above was repeated except that aminophylline, comparative compound (1) and comparative compound (2) were individually used instead of the compound of the present invention, to obtain an ED50. The number of specimens in each group was 3.

Q: Which results are given for `NC1CCCN(S(=O)(=O)c2cccc3cnccc23)C1` (stereo not shown) [1-(5-isoquinolinesulfonyl)-3-aminopiperidine]?
A: vasodilating activity [1]: vasodiletic activity; bronchodilating activity [2]: bronchodilating activity

Q: Which “suppression of histamine-induced bronchial contraction” value (“suppression” below) [3] does the source give for `O=S(=O)(NCCNCc1ccc2c(c1)OCO2)c1cccc2cnccc12` [(3), N-[2(3,4-methylenedioxybenzylamino)ethyl]-5-isoquinolinesulfonamide] here?
A: 36%

Q: With `O=S(=O)(NCCN1CCN(Cc2ccc3c(c2)OCO3)CC1)c1cccc2cnccc12` [(30), 1-(5-isoquinolinesulfonylaminoethyl)-4-(3,4-methylenedioxybenzyl)piperazine] as the molecule, how does the inhibition in vivo at 1 mg/kg [3] read?
A: 31%

Q: With `O=S(=O)(NCCN1CCCN(Cc2ccc3c(c2)OCO3)CC1)c1cccc2cnccc12` [(31), 1-(5-isoquinolinesulfonylaminoethyl)-4-(3,4-methylenedioxybenzyl)homopiperazine] as the molecule, how does the inhibition in vivo at 1 mg/kg [3] read?
A: 35%

Q: With `O=S(=O)(NCCN1CCNCC1)c1cccc2c(O)nccc12` [(32), 1-(1-hydroxy-5-isoquinolinesulfonylaminoethyl) piperazine hydrochloride] as the molecule, how does the EC50 [4] read?
A: 27 µM

Q: For `O=S(=O)(NCCN1CCCNCC1)c1cccc2c(O)nccc12` [(33), 1-(1-hydroxy-5-isoquinolinesulfonylaminoethyl) homopiperazine hydrochloride], which EC50 [4] is on record?
A: 24 µM

Q: With `O=S(=O)(NCCN1CCCN(Cc2ccc3c(c2)OCO3)CC1)c1cccc2c(O)nccc12` [(35), hydrochloride] as the molecule, how does the EC50 [4] read?
A: 18 µM

Q: For `O=S(=O)(NCCN1CCCNCC1)c1ccc(Cl)c2ncccc12` [(36), 1-(8-chloro-5-quinolinesulfonylaminoethyl)homopiperazine], which inhibition in vivo at 1 mg/kg [3] is on record?
A: 22%

Q: With `O=S(=O)(NCCN1CCCN(Cc2ccc3c(c2)OCO3)CC1)c1ccc(Cl)c2ncccc12` [(38), 1-(8-chloro-5-quinolinesulfonylaminoethyl)-4-(3,4-methylenedioxybenzyl)homopiperazine] as the molecule, how does the inhibition in vivo at 1 mg/kg [3] read?
A: 45%

Q: What about the “suppression” value [3] of the same molecule?
A: 45%

Q: Which results are given for `Cn1c(=O)c2[nH]cnc2n(C)c1=O` [Aminophylline, aminophylline]?
A: EC50 [5]: ≥ 200 µM; suppression of histamine-induced bronchial contraction [3]: 7%

Q: For `CCCCCCN(CCN)S(=O)(=O)c1cccc2cnccc12.Cl` [Comparative compound (1), N-(2-aminoethyl)-N-hexyl-5-isoquinolinesulfonamide hydrochloride], which “suppression” value [3] is on record?
A: 9%

Q: For `Cl.NC1CCCN(S(=O)(=O)c2cccc3cnccc23)C1` (stereo not shown) [Comparative compound (2), 1-(5-isoquinolinesulfonyl)-3-aminopiperidine hydrochloride], which “suppression” value [3] is on record?
A: 12%

Q: With `CCCCCCN(CCN)S(=O)(=O)c1cccc2cnccc12` [N-(2-aminoethyl)-N-hexyl-5-isoquinolinesulfonamide] as the molecule, how does the vasodilating activity [1] read?
A: vasodiletic activity

Q: What about the bronchodilating activity [2] of the same molecule?
A: bronchodilating activity

Q: What does the source list for `N=C(N)NCCNS(=O)(=O)c1cccc2cnccc12` [N-(2-guanidinoethyl)-5-isoquinolinesulfonamide]?
A: vasodilating activity [1]: vasodiletic activity; bronchodilating activity [2]: bronchodilating activity
